Calls of active or inactive are those of the source. No cut-off for these calls is given here.
What was measured:
[1] = target: Epidermal growth factor receptor (Homo sapiens) (UniProt P00533); assay: Inhibition of human EGFR at 10 uM after 20 to 40 mins by liquid scintillation counting analysis in presence of […]
[2] = target: Platelet-derived growth factor receptor (Homo sapiens) (UniProt P09619+P16234); assay: Inhibition of PDGFR (unknown origin) at 10 uM after 20 to 40 mins by liquid scintillation counting analysis in presence of […]; type: protein-complex assay
[3] = system: NCI-H460; assay: Cytotoxicity against human NCI-H460 cells after 72 hrs by SRB assay; type: functional; conditions: NCI-H460, 72 h
[4] = Cytotoxicity against human BT549 cells after 72 hrs by SRB assay; type: functional; conditions: BT-549, 72 h
[5] = system: Malme-3M; assay: Cytotoxicity against human MALME-3M cells after 72 hrs by SRB assay; type: functional
[6] = Cytotoxicity against human Caki1 cells after 72 hrs by SRB assay; type: functional; conditions: CAKI-1, 72 h
[7] = system: A549; assay: Cell cycle arrest in human A549 cells assessed as accumulation at G0/G1 phase at IC50 after 48 hrs by FACS flow cytometric analysis relative to control; type: functional
[8] = Cytotoxicity against human OVCAR3 cells after 72 hrs by SRB assay; type: functional; conditions: OVCAR-3, 72 h
[9] = Cytotoxicity against human UACC62 cells after 72 hrs by SRB assay; type: functional; conditions: UACC-62, 72 h
[10] = Cytotoxicity against human IGROV1 cells after 72 hrs by SRB assay; type: functional; conditions: IGROV-1, 72 h
[11] = system: SR; assay: Cytotoxicity against human SR cells after 72 hrs by SRB assay; type: functional
[12] = system: KM12; assay: Cytotoxicity against human KM12 cells after 72 hrs by SRB assay; type: functional; conditions: KM12, 72 h
[13] = Cytotoxicity against human UACC257 cells after 72 hrs by SRB assay; type: functional; conditions: UACC-257, 72 h
[14] = Cytotoxicity against human MOLT4 cells after 72 hrs by SRB assay; type: functional; conditions: MOLT-4, 72 h
[15] = Cytotoxicity against human LOXIMVI cells after 72 hrs by SRB assay; type: functional; conditions: LOX IMVI
[16] = system: MDA-MB-468; assay: Cytotoxicity against human MDA-MB-468 cells after 72 hrs by SRB assay; type: functional; conditions: MDA-MB-468, 72 h
[17] = system: A549; assay: Upregulation of p27kip1 expression in human A549 cells by Western blotting analysis; type: functional
[18] = system: NCI-H322M; assay: Cytotoxicity against human NCI-H322M cells after 72 hrs by SRB assay; type: functional
[19] = Cytotoxicity against human UO31 cells after 72 hrs by SRB assay; type: functional; conditions: UO-31, 72 h
[20] = system: NCI-H23; assay: Cytotoxicity against human NCI-H23 cells after 72 hrs by SRB assay; type: functional; conditions: NCI-H23, 72 h
[21] = Cytotoxicity against human HOP62 cells after 72 hrs by SRB assay; type: functional; conditions: HOP-62, 72 h
[22] = Cytotoxicity against human HCT116 cells after 72 hrs by SRB assay; type: functional; conditions: HCT-116, 72 h
[23] = system: M14; assay: Cytotoxicity against human M14 cells after 72 hrs by SRB assay; type: functional; conditions: M14, 72 h
[24] = system: SN12C; assay: Cytotoxicity against human SN12C cells after 72 hrs by SRB assay; type: functional
[25] = system: 786-0; assay: Cytotoxicity against human 786-0 cells after 72 hrs by SRB assay; type: functional; conditions: 786-0, 72 h
[26] = system: A549; assay: Downregulation of cyclin D1 expression in human A549 cells by immunohistochemical analysis relative to control; type: functional
[27] = system: A498; assay: Cytotoxicity against human A498 cells after 72 hrs by SRB assay; type: functional; conditions: A498, 72 h
[28] = system: NCI-H522; assay: Cytotoxicity against human NCI-H522 cells after 72 hrs by SRB assay; type: functional; conditions: NCI-H522, 72 h
[29] = Cytotoxicity against human RPMI8226 cells after 72 hrs by SRB assay; type: functional; conditions: RPMI-8226, 72 h
[30] = system: SK-MEL-5; assay: Cytotoxicity against human SK-MEL-5 cells after 72 hrs by SRB assay; type: functional; conditions: SK-MEL-5, 72 h
[31] = Cytotoxicity against human RXF393 cells after 72 hrs by SRB assay; type: functional; conditions: RXF 393, 72 h
[32] = Cytotoxicity against human SW620 cells after 72 hrs by SRB assay; type: functional; conditions: SW-620, 72 h
[33] = Cytotoxicity against human DU145 cells after 72 hrs by SRB assay; type: functional; conditions: DU-145, 72 h
[34] = Cytotoxicity against human HOP92 cells after 72 hrs by SRB assay; type: functional; conditions: HOP-92, 72 h
[35] = Cytotoxicity against human Hs 578T cells after 72 hrs by SRB assay; type: functional
[36] = system: SK-MEL-2; assay: Cytotoxicity against human SK-MEL-2 cells after 72 hrs by SRB assay; type: functional; conditions: SK-MEL-2, 72 h
[37] = read-out: LC50 (the source's name)

Sequence of Epidermal growth factor receptor (Homo sapiens) (P00533 whole entry): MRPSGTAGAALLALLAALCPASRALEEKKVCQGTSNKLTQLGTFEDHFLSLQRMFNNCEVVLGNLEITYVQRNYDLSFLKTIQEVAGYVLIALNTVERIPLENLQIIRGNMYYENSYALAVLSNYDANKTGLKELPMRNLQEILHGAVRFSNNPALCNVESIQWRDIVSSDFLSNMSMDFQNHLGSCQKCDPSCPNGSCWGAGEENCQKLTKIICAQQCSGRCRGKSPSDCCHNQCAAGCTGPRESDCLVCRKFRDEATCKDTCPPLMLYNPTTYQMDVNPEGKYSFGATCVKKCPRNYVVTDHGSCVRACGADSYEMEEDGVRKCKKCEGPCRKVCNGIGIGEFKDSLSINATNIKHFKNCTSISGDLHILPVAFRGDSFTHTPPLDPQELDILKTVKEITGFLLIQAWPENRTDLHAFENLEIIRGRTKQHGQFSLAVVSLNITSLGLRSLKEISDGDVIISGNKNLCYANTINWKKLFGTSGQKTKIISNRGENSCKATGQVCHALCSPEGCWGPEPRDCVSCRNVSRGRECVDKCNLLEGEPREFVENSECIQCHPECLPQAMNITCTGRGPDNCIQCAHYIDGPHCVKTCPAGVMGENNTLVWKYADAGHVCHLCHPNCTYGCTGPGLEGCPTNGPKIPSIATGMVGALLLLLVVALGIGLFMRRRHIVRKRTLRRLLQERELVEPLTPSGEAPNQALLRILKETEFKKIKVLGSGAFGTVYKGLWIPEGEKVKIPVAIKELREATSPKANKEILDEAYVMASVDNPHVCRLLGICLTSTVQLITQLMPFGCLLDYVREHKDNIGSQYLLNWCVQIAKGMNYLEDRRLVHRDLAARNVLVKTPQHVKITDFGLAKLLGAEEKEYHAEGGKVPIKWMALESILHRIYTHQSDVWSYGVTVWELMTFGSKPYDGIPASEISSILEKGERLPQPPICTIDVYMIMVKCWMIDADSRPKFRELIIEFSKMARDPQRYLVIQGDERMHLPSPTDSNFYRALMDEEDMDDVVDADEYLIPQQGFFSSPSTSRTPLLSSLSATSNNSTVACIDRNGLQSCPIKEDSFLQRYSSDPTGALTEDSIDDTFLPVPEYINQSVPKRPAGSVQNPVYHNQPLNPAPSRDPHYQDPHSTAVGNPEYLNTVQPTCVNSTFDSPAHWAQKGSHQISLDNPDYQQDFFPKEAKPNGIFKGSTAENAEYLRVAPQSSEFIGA

Cc1ccc2nc(Nc3ncnc4c3cnn4-c3ccccc3)sc2c1
inhibition [1]: inactive

O=c1sc2cc(Nc3ncnc4c3cnn4-c3ccccc3)ccc2n1Cc1ccc(Cl)cc1
inhibition [2]: inactive

O=C(NC1CCCCC1)c1ccc(Nc2ncnc3c2cnn3-c2ccccc2)cc1
GI50 [3]: 7.09 µM | TGI [3]: > 100 µM | CC50 [3, 37]: > 100 µM | GI50 [4]: 5.69 µM | TGI [4]: 26.4 µM | CC50 [4, 37]: 91.9 µM | GI50 [5]: 1.97 µM | TGI [5]: 4.94 µM | CC50 [5, 37]: 21 µM | GI50 [6]: 14 µM | TGI [6]: > 100 µM | CC50 [6, 37]: > 100 µM | Activity [7]: 11.9% | GI50 [8]: 14.3 µM | TGI [8]: > 100 µM | CC50 [8, 37]: > 100 µM | GI50 [9]: 17.4 µM | TGI [9]: > 100 µM | CC50 [9, 37]: > 100 µM | GI50 [10]: 14.4 µM | TGI [10]: 65.9 µM | CC50 [10, 37]: > 100 µM | GI50 [11]: 11.6 µM | TGI [11]: 49.1 µM | CC50 [11, 37]: > 100 µM | GI50 [12]: 57.8 µM | TGI [12]: > 100 µM | CC50 [12, 37]: > 100 µM | GI50 [13]: 6.42 µM | TGI [13]: > 100 µM | CC50 [13, 37]: > 100 µM | GI50 [14]: 75.6 µM | TGI [14]: > 100 µM | CC50 [14, 37]: > 100 µM | GI50 [15]: 4.49 µM | TGI [15]: 22.3 µM | CC50 [15, 37]: > 100 µM | GI50 [16]: 21.7 µM | TGI [16]: > 100 µM | CC50 [16, 37]: > 100 µM | fold change (FC) [17]: 3 | GI50 [18]: 15.8 µM | TGI [18]: > 100 µM | CC50 [18, 37]: > 100 µM | GI50 [19]: 23.9 µM | TGI [19]: > 100 µM | CC50 [19, 37]: > 100 µM | GI50 [20]: 10.9 µM | TGI [20]: 89.9 µM | CC50 [20, 37]: > 100 µM | GI50 [21]: 2.62 µM | TGI [21]: 8.78 µM | CC50 [21, 37]: 37.3 µM | GI50 [22]: 4.01 µM | TGI [22]: > 100 µM | CC50 [22, 37]: > 100 µM | GI50 [23]: 18.3 µM | TGI [23]: > 100 µM | CC50 [23, 37]: > 100 µM | GI50 [24]: 8.26 µM | TGI [24]: > 100 µM | CC50 [24, 37]: > 100 µM | GI50 [25]: 3.47 µM | TGI [25]: 18.3 µM | CC50 [25, 37]: 65.5 µM | Activity [26]: 51% | GI50 [27]: 3.83 µM | TGI [27]: 39.4 µM | CC50 [27, 37]: > 100 µM | GI50 [28]: 6.4 µM | TGI [28]: > 100 µM | CC50 [28, 37]: > 100 µM | GI50 [29]: > 100 µM | TGI [29]: > 100 µM | CC50 [29, 37]: > 100 µM | GI50 [30]: 21.7 µM | TGI [30]: > 100 µM | CC50 [30, 37]: > 100 µM | GI50 [31]: 2.43 µM | TGI [31]: 9.33 µM | CC50 [31, 37]: 56.9 µM | GI50 [32]: > 100 µM | TGI [32]: > 100 µM | CC50 [32, 37]: > 100 µM | GI50 [33]: 10.6 µM | TGI [33]: 48.1 µM | CC50 [33, 37]: > 100 µM | GI50 [34]: 2.53 µM | TGI [34]: 8.29 µM | CC50 [34, 37]: 86.6 µM | GI50 [35]: 3.37 µM | TGI [35]: 34.2 µM | CC50 [35, 37]: > 100 µM | GI50 [36]: 13.6 µM | TGI [36]: 36.2 µM | CC50 [36, 37]: 96.3 µM
